Measurements from US9957264B2 (Merck Sharp & Dohme Corp., priority 2013, dated 2018).

Assays:
[1] = target: JAK1 (recombinant purified GST-tagged catalytic domain) (Homo sapiens (Human), UniProt P23458); experiment: Jak Biochemical HTRF Assay (JAK1); conditions: [ATP] 31.8 μM
In short: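 Read-out is the 665/615 nm time-resolved FRET ratio from Eu-pY20 antibody and streptavidin-Dylight 650 bound to phosphorylated biotin-peptide. Reactions ran 120 min at room temperature after ATP start. Inhibition normalized to untreated controls gave IC50 via 4-parameter fit.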

[2] = target: JAK2 (recombinant purified GST-tagged catalytic domain) (Homo sapiens (Human), UniProt O60674); experiment: Jak Biochemical HTRF Assay (JAK2); conditions: [ATP] 8.5 μM
Sequence of JAK2 (recombinant purified GST-tagged catalytic domain) (O60674 849-1124): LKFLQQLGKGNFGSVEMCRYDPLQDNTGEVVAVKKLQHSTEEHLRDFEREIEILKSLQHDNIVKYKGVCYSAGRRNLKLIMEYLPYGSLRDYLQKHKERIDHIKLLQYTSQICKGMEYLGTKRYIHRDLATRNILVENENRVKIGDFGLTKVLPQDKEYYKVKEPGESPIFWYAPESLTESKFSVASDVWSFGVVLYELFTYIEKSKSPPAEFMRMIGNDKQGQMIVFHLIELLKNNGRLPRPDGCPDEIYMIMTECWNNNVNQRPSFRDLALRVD

Sequence of JAK1 (recombinant purified GST-tagged catalytic domain) (P23458 875-1153): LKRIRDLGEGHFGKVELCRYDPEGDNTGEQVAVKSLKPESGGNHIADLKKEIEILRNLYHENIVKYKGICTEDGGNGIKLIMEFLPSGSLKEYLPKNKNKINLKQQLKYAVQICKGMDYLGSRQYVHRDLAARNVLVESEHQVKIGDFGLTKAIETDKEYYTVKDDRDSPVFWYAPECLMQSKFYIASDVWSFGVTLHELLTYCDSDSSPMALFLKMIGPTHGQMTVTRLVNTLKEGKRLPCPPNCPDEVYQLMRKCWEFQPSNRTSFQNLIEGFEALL

SMILES	IC50 [1]	IC50 [2]
CC(C)CN1Cc2cc(Nc3nn(C4(CC#N)CCN(C(=O)OC(C)(C)C)CC4)c4cc[nH]c(=O)c34)ccc2S1(=O)=O [Example 5-67]	0.47 nM	0.52 nM
CC(C)(C)OC(=O)N1CC[C@](CC#N)(n2nc(Nc3ccc4c(c3)CN(C(C)(C)C)S4(=O)=O)c3c(=O)[nH]ccc32)[C@H](F)C1 [Example 5-22, tert-butyl (3R,4R)-4-{3-[(2-tert-butyl-1,1-dioxido-2,3-dihydro-1,2-benzisothiazol-5-yl)amino]-4-oxo-4,5-dihydro-1H-pyrazolo [4,3-c]pyridin-1-yl}-4-(cyanomethyl)-3-fluoropiperidine-1-carboxylate]	0.15 nM	0.19 nM
CC(C)(C)OC(=O)[C@@H]1CC[C@@](CC#N)(n2nc(Nc3ccc(C(N)C(F)(F)F)cc3)c3c(=O)[nH]ccc32)CO1 (stereo partly drawn) [Example 5-103, (2S,5S)-tert-butyl 5-(3-((4-(1-amino-2,2,2-trifluoroethyl)phenyl)amino)-4-oxo-4,5-dihydro-1H-pyrazolo[4,3-c]pyridin-1-yl)-5-(cyanomethyl)tetrahydro-2H-pyran-2-carboxylate]	0.07 nM	0.23 nM
CC(C)(C)NS(=O)(=O)c1ccc(Nc2nn([C@]3(CC#N)CCCOC3)c3cc[nH]c(=O)c23)cc1 [Example 5-184, N-tert-butyl-4-({1-[(3S)-3-(cyanomethyl)tetrahydro-2H-pyran-3-yl]-4-oxo-4,5-dihydro-1H-pyrazolo[4,3-c]pyridin-3-yl}amino) benzenesulfonamide]	0.2 nM	0.6 nM
CCNC(c1ccc(Nc2nn([C@]3(CC#N)CC[C@@H](C(=O)OC(C)(C)C)OC3)c3cc[nH]c(=O)c23)cc1)C(F)(F)F (single isomer, unassigned) [Example 5-207, (2S,5S)-tert-butyl 5-(cyanomethyl)-5-(3-((4-((R or S)-1-(ethylamino)-2,2,2-trifluoroethyl)phenyl)amino)-4-oxo-4,5-dihydro-1H-pyrazolo[4,3-c]pyridin-1-yl)tetrahydro-2H-pyran-2-carboxylate]	0.19 nM	0.26 nM
CC(c1ccc(Nc2nn([C@]3(CC#N)CCCOC3)c3cc[nH]c(=O)c23)cc1)N1CCCC1 (single isomer, unassigned) [Example 5-200, {(3S)-3-[4-oxo-3-({4-[(1S or 1R)-1-pyrrolidin-1-ylethyl]phenyl}amino)-4,5-dihydro-1H-pyrazolo[4,3-c]pyridin-1-yl]tetrahydro-2H-pyran-3-yl}acetonitrile]	1.15 nM	0.53 nM
CN(C)S(=O)(=O)c1ccc(Nc2nn(C3(CC#N)CCN(Cc4ccccc4F)CC3)c3cc[nH]c(=O)c23)cc1 [Example 8-9, 4-({1-[4-(cyanomethyl)-1-(2-fluorobenzyl)piperidin-4-yl]-4-oxo-4,5-dihydro-1H-pyrazolo[4,3-c]pyridin-3-yl}amino)-N,N-dimethylbenzenesulfonamide]	0.19 nM	0.28 nM
N#CC[C@@]1(n2nc(Nc3ccc(C#N)cc3)c3c(=O)[nH]ccc32)CCOC1 (single isomer, unassigned) [Example 5-239, 4-({1-[(3R or 3S)-3-(cyanomethyl)tetrahydrofuran-3-yl]-4-oxo-4,5-dihydro-1H-pyrazolo[4,3-c]pyridin-3-yl}amino)benzonitrile]	2.29 nM	16.7 nM
CC(C)(C)OC(=O)[C@@H]1CC[C@@](CC#N)(n2nc(Nc3ccc([C@H](N)C(F)(F)F)cc3)c3c(=O)[nH]ccc32)CO1 (single isomer, unassigned) [Example 5-53, (2S,5S)-tert-butyl 5-(3-((4-((S or R)-1-amino-2,2,2-trifluoroethyl)phenyl)amino)-4-oxo-4,5-dihydro-1H-pyrazolo[4,3-c]pyridin-1-yl)-5-(cyanomethyl) tetrahydro-2H-pyran-2-carboxylate]	0.19 nM	0.57 nM
CN(C)S(=O)(=O)c1ccc(Nc2nn(C3(CC#N)CCN(CCc4ccccc4)CC3)c3cc[nH]c(=O)c23)cc1 [Example 8-18, 4-((1-(4-(cyanomethyl)-1-phenethylpiperidin-4-yl)-4-oxo-4,5-dihydro-1H-pyrazolo[4,3-c]pyridin-3-yl)amino)-N,N-dimethylbenzenesulfonamide]	3.16 nM	14 nM
CN(C)S(=O)(=O)c1ccc(Nc2nn(C3(CC#N)CCN(Cc4ccc(N5CCCC5=O)cc4)CC3)c3cc[nH]c(=O)c23)cc1 [Example 8-14, 4-[(1-{4-(cyanomethyl)-1-[4-(2-oxopyrrolidin-1-yl)benzyl]piperidin-4-yl}-4-oxo-4,5-dihydro-1H-pyrazolo[4,3-c]pyridin-3-yl)amino]-N,N-dimethylbenzenesulfonamide]	0.73 nM	2.84 nM
CC(C)(C)OC(=O)N1CCC(CC#N)(n2nc(NC3CCC3)c3c(=O)[nH]ccc32)CC1 [Example 2-3, tert-butyl 4-(cyanomethyl)-4-[3-(cyclobutylamino)-4-oxo-4,5-dihydro-1H-pyrazolo[4,3-c]pyridin-1-yl]piperidine-1-carboxylate]	67.6 nM	> 1500 nM

Other lines, results leading:

IC50 [1]	IC50 [2]	SMILES
0.06 nM	0.1 nM	CC(C#N)OC(=O)N1CCC(CC#N)(n2nc(Nc3ccc(S(=O)(=O)N(C)C)cc3)c3c(=O)[nH]ccc32)CC1 (stereo not shown) [Example 11-10, 1-cyanoethyl 4-(cyanomethyl)-4-(3-((4-(N,N-dimethylsulfamoyl)phenyl)amino)-4-oxo-4,5-dihydro-1H-pyrazolo[4,3-c]pyridin-1-yl)piperidine-1-carboxylate]
0.09 nM	1.32 nM	Cc1nc2ccc(Nc3nn(C4(CC#N)CCCOC4)c4cc[nH]c(=O)c34)cc2s1 (stereo in doubt) [Example 21-5, [(3S)-3-{3-[(2-methyl-1,3-benzothiazol-6-yl)amino]-4-oxo-4,5-dihydro-1H-pyrazolo[4,3-c]pyridin-1-yl}tetrahydro-2H-pyran-3-yl]acetonitrile]
20.5 nM	> 1500 nM	N#CC[C@]1(n2nc(Nc3ccc(Cl)c(F)c3)c3c(=O)[nH]ccc32)CC[C@@H](NC2CCCCC2)CC1 [Example 18-22, Cis 2-(1-(3-((4-chloro-3-fluorophenyl)amino)-4-oxo-4,5-dihydro-1H-pyrazolo[4,3-c]pyridin-1-yl)-4-(cyclohexylamino)cyclohexyl)acetonitrile]
0.12 nM	2.25 nM	CC(C)(C)OC(=O)[C@@H]1CC[C@@](CC#N)(n2nc(Nc3ccnc(F)c3)c3c(=O)[nH]ccc32)CO1 [Example 21-6, (2S,5S)-tert-butyl 5-(cyanomethyl)-5-(3-((2-fluoropyridin-4-yl)amino)-4-oxo-4,5-dihydro-1H-pyrazolo[4,3-c]pyridin-1-yl)tetrahydro-2H-pyran-2-carboxylate]
0.09 nM	5.87 nM	COC1CN([C@H]2CC[C@](CC#N)(n3nc(Nc4ccc(Cl)c(F)c4)c4c(=O)[nH]ccc43)CC2)C1 [Example 18-24, Trans 2-(1-(3-((4-chloro-3-fluorophenyl)amino)-4-oxo-4,5-dihydro-1H-pyrazolo[4,3-c]pyridin-1-yl)-4-(3-methoxyazetidin-1-yl)cyclohexyl)acetonitrile]
